In PubChem BioAssay (NCI):
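1) Cells in 96-well plates. 2) Compound, 48 h, 5 concentrations. 3) Linear interpolation between surrounding doses. 4) Unreached endpoint = highest concentration. TGI marks complete inhibition of growth.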

Experiments:
Experiment in all cases: growth of human tumour cells (NCI), 48 h
[1] = test system: M19-MEL melanoma
[2] = test system: KM12 colon
[3] = test system: RXF-631 renal
[4] = test system: SK-OV-3 ovarian
[5] = test system: IGROV1 ovarian
[6] = test system: SNB-78 CNS
[7] = test system: DMS 114 small cell lung
[8] = test system: MALME-3M melanoma
[9] = test system: DMS 273 small cell lung
[10] = test system: XF 498 CNS
[11] = test system: LXFL 529 NSCLC
[12] = test system: DLD-1 colon
[13] = test system: KM20L2 colon
[14] = test system: HT29 colon
[15] = test system: HOP-18 NSCLC
[16] = test system: SK-MEL-5 melanoma

SMILES | TGI [1] [µM] | TGI [2] [µM] | TGI [3] [µM] | TGI [4] [µM] | TGI [5] [µM] | TGI [6] [µM] | TGI [7] [µM] | TGI [8] [µM] | TGI [9] [µM] | TGI [10] [µM] | TGI [11] [µM] | TGI [12] [µM] | TGI [13] [µM] | TGI [14] [µM] | TGI [15] [µM] | TGI [16] [µM]
Cc1nc(-n2nc(-c3ccccc3)cc2-c2ccccc2)sc1C(=O)/C=C/c1ccc(Cl)c(Cl)c1 | > 100 | 20.8 | > 100 | > 100 | 30 | 73.6 | > 100 | > 100 | > 100 | 30.8 | 32 | 48.2 | 70.3 |  |  | 
C[C@@H]1O[C@]2(O)[C@@H]3CCCN3S(=O)(=O)CCN2C1=O | > 100 | > 100 | > 100 | > 100 | > 100 | > 100 |  | > 100 |  | > 100 | > 100 | > 100 | > 100 | > 100 | > 100 | > 100
CC(C)N(C(=O)C12C3C4C1C1C2C3C41I)C(C)C (stereo not drawn) | > 100 | > 100 | > 100 | > 100 | > 100 | > 100 | > 100 | > 100 | > 100 | > 100 | > 100 |  |  | > 100 |  | > 100
CCN(CC)CC(=O)NC1c2ccccc2Oc2c(C)cccc21 (stereo not drawn) | > 100 |  |  | > 100 | > 100 | > 100 | > 100 |  | > 100 | > 100 | > 100 | > 100 | > 100 | > 100 |  | > 100
O=C(Cc1ccc([N+](=O)[O-])c([N+](=O)[O-])c1CC(=O)C(=O)Nc1cc(Cl)ccc1Cl)C(=O)Nc1cc(Cl)ccc1Cl | > 100 | > 100 |  | > 100 | > 100 | > 100 | > 100 | > 100 | 87.3 |  | > 100 | > 100 | > 100 | > 100 | > 100 | > 100
CC12C(=C(C#N)C(=N)N1c1ccc(Cl)c(Cl)c1)C=C(O)CC2SCCS(=O)(=O)O (stereo not drawn) | > 100 | > 100 |  | > 100 | > 100 | > 100 | > 100 |  | > 100 |  | > 100 | > 100 | > 100 | > 100 |  | > 100
CC1(C)OCN(c2ccc(S(N)(=O)=O)cc2)Cn2c1nc1ccccc12 | > 100 | > 100 |  | > 100 | > 100 | > 100 | > 100 | > 100 | > 100 | > 100 | > 100 | > 100 | > 100 | > 100 | > 100 | 
N#C/C(=C\c1cc(O)ccc1O)C(N)=O | > 100 | > 100 | > 100 | > 100 | > 100 | > 100 | 70.9 | > 100 | > 100 | > 100 | > 100 | > 100 | > 100 | > 100 |  | 
C#CCNC(=O)NCCCCC(NC(C)=O)C(=O)NCc1ccccc1 (stereo not drawn) | > 100 | > 100 | > 100 | > 100 | > 100 | > 100 | > 100 | > 100 |  | > 100 | > 100 | > 100 | > 100 | > 100 | > 100 | > 100
Cc1cc(C)c2c(c1)N[S@@](=O)S2 | 46.7 | 69.6 |  | 90.6 | > 100 | > 100 | 38.7 | 58.1 | 38.2 | 50.1 | 29.4 | 59.2 | > 100 | 41.1 | 92.1 | 80.6
CC/C(=N/O)c1ccc2[nH]c3c(C)cc([N+](=O)[O-])c(C)c3c2c1 | > 100 | > 100 |  |  |  | > 100 | > 100 | > 100 | 60.8 | > 100 |  | > 100 |  | > 100 | > 100 | > 100
Cc1nc(N)c(-c2ccccc2)s1 | > 100 | > 100 | > 100 | > 100 | > 100 | > 100 | > 100 | > 100 | > 100 | > 100 | > 100 | > 100 | > 100 | > 100 | > 100 | > 100
COc1ccc2c(c1)[n+](=O)c(C(=O)C/C(=N/NC(=O)C[N+](C)(C)C)C(=O)Nc1cccc(C)c1C)c(C)n2O | > 100 | > 100 | > 100 | > 100 | > 100 | > 100 | > 100 | > 100 | > 100 |  | > 100 | > 100 | > 100 | > 100 | > 100 | 
COc1ccccc1-n1c(N)c2c(C)c(-c3ccccc3)[nH]c2nc1=S | > 100 | > 100 |  |  |  |  | > 100 | > 100 | > 100 | > 100 | > 100 | > 100 | > 100 |  | > 100 | > 100
COc1cc2c(cc1O)CN1CCC23C=C[C@@H](O)CC13 (stereo partly drawn) | > 100 | > 100 |  | > 100 | > 100 | > 100 | > 100 | > 100 | > 100 |  | > 100 | > 100 | > 100 | > 100 | > 100 | > 100
CCN(CC)CCC1(C2CCCCC2)CCC(=O)NC1=O (stereo not drawn) | > 100 | > 100 | > 100 | > 100 | > 100 | > 100 | > 100 | > 100 | > 100 | > 100 | > 100 | > 100 | > 100 | > 100 |  | > 100
CCOC(=O)C(/C(=N\NC(=O)OC)C(=O)Nc1cc(OC)ccc1OC)c1cnc2ccccc2n1 (stereo not drawn) | > 100 |  |  | > 100 | > 100 | > 100 | > 100 | > 100 |  | > 100 | > 100 | > 100 |  | > 100 | > 100 | > 100
COc1cc(C2C(C(=O)Nc3ccc([N+](=O)[O-])cc3)=C(C)NC(C)=C2C(=O)Nc2ccc([N+](=O)[O-])cc2)ccc1O | 43.3 | 39 | > 100 | 77.8 | 65.4 | > 100 | > 74.5 | 60 | 53.3 | 69.1 | 64 | > 68.6 | 34.7 | 38.1 | > 74.2 | > 100
CCOc1ccc(/C=C(\Cl)c2ccc(OC)cc2)cc1 | > 100 |  |  | > 100 | > 100 | > 100 | > 100 | > 100 | > 100 | > 100 | > 100 | > 100 | > 100 | > 100 | > 100 | > 100
C[C@@H]1OC2(O)[C@H]3CCCN3S(=O)(=O)CCN2C1=O (stereo partly drawn) | > 100 | > 100 | > 100 | > 100 | > 100 | > 100 |  | > 100 |  |  | > 100 | > 100 | > 100 | > 100 | > 100 | > 100
CCOC(=O)c1cnc2c(ccc3[nH]cccc32)c1=O | > 100 | > 100 |  | > 100 | > 100 | > 100 | > 100 | > 100 | > 100 |  | > 100 | > 100 | > 100 | > 100 | > 100 | > 100
C/C(=N/NC(=O)C[n+]1ccccc1)C(CN(CC(C)C)CC(C)C)C(=O)Nc1ccc(C)cc1C (stereo not drawn) | > 100 |  | > 100 | > 100 | > 100 |  | > 100 | > 100 |  |  |  | > 100 | > 100 | > 100 |  | > 100
CCCCCCCCCCCCCCCCc1c(C(=O)OC)nc(NN)[nH]c1=O | > 50 | > 50 | > 50 | > 50 | > 50 | > 50 | > 50 | > 50 | > 50 | > 50 | > 50 | > 50 | > 50 | > 50 | > 50 | > 50
C/C(=N\NC(=S)NC(CCC(=O)O)C(=O)O)c1cnccn1 (stereo not drawn) | > 100 | > 100 | > 100 | > 100 | > 100 | > 100 | > 100 | > 100 |  | > 100 | > 100 | > 100 | > 100 | > 100 | > 100 | > 100
CCOC(=O)CCC(NC(=O)c1ccc(N=Cc2nc3ccccc3nc2-c2ccccc2)cc1)C(=O)OCC (stereo not drawn) |  | > 100 | > 100 | > 100 | > 100 | > 100 | > 100 | > 100 | > 100 | > 100 | > 100 | > 100 | > 100 | > 100 | > 100 | > 100
C[C@@]1(Cc2ccccc2)C(=O)N2[C@@H](CO)C(c3ccccc3)O[C@]2(C)c2ccccc21 (stereo partly drawn) | > 100 | > 100 |  | > 100 | > 100 | > 100 | > 100 |  | > 100 |  | > 100 | > 100 | > 100 |  |  | > 100
